Source: patent US20080275075A1, “Medicine Comprising a Combination of an Acetylcholinesterase Inhibitor and a 5-Substituted-3-Oxadiazolyl-1,6-Naphthyridin-2(1H)-One Derivative” (priority 2004, published 2008)
Where a name gives a salt, the structure may show the parent alone.

Legend:
[1] = test system: spatial memory disorder induced by scopolamine; assay: Ameliorating effect on spatial memory disorder induced by scopolamine (Y-maze alternation behavior); format: in vivo, ddY male mice; conditions: for Single administration [MED (mg/kg)]: minimum effective dose, 1 h before scopolamine 0.6 mg/kg s.c.; for Single administration [MED (mg/kg)] / # [MED (mg/kg)] Combined administration with donepezil: oral; for dose at which spatial memory disorder induced by scopolamine was significantly ameliorated: single oral administration; for # [MED (mg/kg)] Combined administration with donepezil: minimum effective dose of test compound, combined with donepezil 1 mg/kg
Description: (§1) The pharmacological experiment to investigate ameliorating effect on spatial memory disorder induced by scopolamine was carried out by systemic administration to animals according to the following method of Itoh, T. et al. In addition, the pharmacological experiment to investigate ameliorating effect on spatial memory disorder induced by MK-801 was carried out by systemic administration to animals according to the following method of Maurice, T. et al.
(§2) The spatial memory test using Y-maze apparatus which was selected for the pharmacological experiment is a test to utilize the behavioral property of animals to enter into a new arm, avoiding the arm that they entered into just before (alternation behavior). This method is often used in order to study spatial working memory.
This experiment was carried out according to the method of Itoh, J., et al. [Eur. J. Pharmacol., 236, pp. 341-345 (1993)].
Ten to twelve ddY male mice weighing 28-34 g were used per one group in the experiment. A solution of scopolamine in physiological saline (concentration: 0.06 mg/ml) was subcutaneously administered to mice in a volume of 0.1 ml/10 g of body weight, i.e., 0.6 mg/kg. […] However, the vehicle control group was injected with physiological saline instead of scopolamine. Thirty minutes after the administration of scopolamine, the mice were placed at the end of the arm A of the Y-maze apparatus which was composed of three black acrylic trapezoid arms (bottom width: 3 cm, height of side wall: 12 cm, width of opened ceiling: 10 cm, length: 40 cm), wherein said three arms were connected at the one end of each arm to form Y-shape and another ends were closed, and the three arms were differentiated by the names as A, B and C respectively, and allowed to search freely the maze for 8 minutes. When the mouse was checked to enter into an arm at the length of not less than 10 cm from the entrance of the arm, the name of the arm (A, B or C) was recorded. For the final data gotten, the ratio of the number of the alternation behavior to that of the entries (obtained by subtracting 2 from the total number of arm entries) was estimated as the rate of alternation behavior.
In statistical analysis, the rate of alternation behavior in the amnesia control group was compared with that in the vehicle control group by the Wilcoxon rank sum test and it was checked if a significant amnesia was induced in the amnesia control group. Next, the efficacy of the test compounds in single use or in combination use of the test compounds with donepezil was evaluated in comparison between the amnesia control group and the single-administration groups using each one of the test compound A, the test compound B or donepezil; or in comparison between the amnesia control group and the combination groups of the test compound A or B and donepezil, by the nonparametric Dunnett multiple comparison test. The statistical calculation was carried out with SAS® System (Release 8.02, SAS Institute Inc.) and Preclinical Package Version 5.0 (SAS Institute Japan Ltd.).

[2] = test system: spatial memory disorder induced by MK-801; assay: Ameliorating effect on spatial memory disorder induced by MK-801 (Y-maze alternation behavior); format: in vivo, ddY male mice; conditions: for [MED (mg/kg)]: minimum effective dose, oral, 1 h before MK-801 0.1 mg/kg s.c., single administration
Description: as §1, §2
This experiment was carried out according to the method of Maurice, T., et al. [Brain Res., 647, pp. 44-56 (1994)].
Ten to twelve ddY male mice weighing 26-36 g were used per one group in the experiment. A solution of MK-801 in physiological saline (concentration: 0.01 mg/ml) was subcutaneously administered to mice in a volume of 0.1 ml/10 g of body weight, i.e., 0.1 mg/kg. One hour before MK-801 administration, the groups of mice to which each test compound should be singly administered were orally treated with test compound A, test compound B or donepezil suspended in 0.5% tragacanth solution in a volume of 0.1 ml/10 g of body weight; and the animals in the amnesia control group and the vehicle control group orally received a 0.5% tragacanth solution in a volume of 0.1 ml/10 g of body weight. However, the vehicle control group was injected with physiological saline instead of MK-801. Twenty minutes after administration of MK-801, the mice were placed at the end of the arm A of the Y-maze apparatus which was composed of three black acrylic trapezoid arms (bottom width: 3 cm, height of side wall: 12 cm, width of opened ceiling: 10 cm, length: 40 cm), wherein said three arms were connected at the one end of each arm to form Y-shape and another ends were closed, and the three arms were differentiated by the names as A, B and C respectively, and allowed to search freely the maze for 8 minutes. When the mouse was checked to enter into an arm at the length of not less than 10 cm from the entrance of the arm, the name of the arm (A, B or C) was recorded. For the final data gotten, the ratio of the number of the alternation behavior to that of the entries (obtained by subtracting 2 from the total number of arm entries) was estimated as the rate of alternation behavior.
In statistical analysis, the rate of alternation behavior in the amnesia control group was compared with that in the vehicle control group by the Wilcoxon rank sum test and it was checked if a significant amnesia was induced in the amnesia control group. Next, the efficacy of the test compounds was evaluated in comparison between the amnesia control group and each group of test compound A, test compound B or donepezil by the nonparametric Dunnett multiple comparison test. The statistical calculation was carried out with SAS® System (Release 8.02, SAS Institute Inc.) and Preclinical Package Version 5.0 (SAS Institute Japan Ltd.).

| SMILES | amelioration of spatial memory disorder induced by scopolamine ([1]; 1 mg/kg, single administration) | Single administration [MED (mg/kg)] ([1]; single administration) [mg/kg] | dose at which spatial memory disorder induced by scopolamine was significantly ameliorated [1] [mg/kg] | [MED (mg/kg)] [2] [mg/kg] | amelioration of spatial memory disorder induced by MK-801 ([2]; single oral administration) | rate of alternation behavior ([2]; amnesia control group, MK-801 0.1 mg/kg s.c., vehicle control group 65-73%) | rate of alternation behavior ([1]; amnesia control group, scopolamine 0.6 mg/kg s.c., vehicle control group 63-70%) | # [MED (mg/kg)] Combined administration with donepezil ([1]; scopolamine 0.6 mg/kg s.c.) [mg/kg] | dose at which spatial memory disorder induced by MK-801 was significantly ameliorated ([2]; single oral administration) [mg/kg] |
| --- | --- | --- | --- | --- | --- | --- | --- | --- | --- |
| COc1cc2c(cc1OC)C(=O)C(CC1CCN(Cc3ccccc3)CC1)C2 (centres unmarked) [Donepezil, Donepezil hydrochloride, reference compound] | not ameliorated | 10 | ≥ 10 | >15 | not ameliorated |  |  |  |  |
| C[C@]12N[C@H](Cc3ccccc31)c1ccccc12 [MK-801, dizocilipine maleate, reference compound] |  |  |  |  |  | 45-47% |  |  |  |
| CN1[C@@H]2C[C@@H](OC(=O)[C@H](CO)c3ccccc3)C[C@H]1[C@@H]1O[C@@H]12 [scopolamine, Scopolamine hydrobromide, reference compound] |  |  |  |  |  |  | 39-46% |  |  |
| COc1cccc(-c2nccc3[nH]c(=O)c(-c4noc(C)n4)cc23)c1 [Test compound A, 3-(5-methyl-1,2,4-oxadiazol-3-yl)-5-(3-methoxyphenyl)-1,6-naphthyridin-2(1H)-one] |  | 0.3 | ≥ 0.3 | 0.3 |  |  |  | 0.03 | ≥ 0.3 |
| O=c1[nH]c2ccnc(-c3ccsc3)c2cc1-c1nc(C2CC2)no1 [Test compound B, 3-(3-cyclopropyl-1,2,4-oxadiazol-5-yl)-5-(3-thienyl)-1,6-naphthyridin-2(1H)-one] |  | 0.1 | ≥ 0.1 | 0.1 |  |  |  | 0.01 | ≥ 0.1 |
